Key:
[1] = test system: SARS-CoV-2 spike protein (SmT1); experiment: SARS-CoV-2 Spike-specific IgG ELISA in hamsters; assay type: in vivo, Syrian Golden hamsters; conditions: 3 μg SmT1 i.m. Day 0 only, serum Day 34 (FIG. 15 lower)
OVA = experiment: Anti-OVA antibody ELISA of mouse serum; assay type: in vivo; conditions: OVA-immunized mice, Day 28; 100 = limit of detection (FIG. 5)
From the text: (§1) Serum of mice immunized with OVA antigen alone (None) or formulated with SLA archaeosomes, other adjuvants (Poly(I:C), Resiquimod (R848), CpG, MPLA, QS-21, Pam3CSK4) or SLA in combination with other adjuvants was collected on Day 28 (7 days post 2nd immunization by intramuscular route) and analyzed for antigen-specific IgG antibodies by ELISA. Grouped data is presented as geometric mean titer+95% Confidence Interval (n=10/group).
as §1, with “(none)” for “(None)”, “immunization)” for “immunization by intramuscular route)”, “IgG2c” for “IgG”
The levels of anti-OVA or anti-HBsAg antibodies (Abs) in mouse serum were quantified by ELISA using 96-well high-binding ELISA plates (Thermo Fisher Scientific, Waltham, MA, USA) coated overnight at room temperature (RT) with 100 μL of 10 μg/mL OVA (Sigma-Aldrich, St. Louis, MO, USA) in PBS or 1 μg/mL HBsAg (Fitzgerald Industries International) in 16 mM sodium carbonate/34 mM sodium bicarbonate buffer, pH 9.6 (Sigma-Aldrich). […] Bound IgG Abs were detected spectrophotometrically at 450 nm. […]

Molecule	Anti-spike IgG GMT, prime only regimen [1]	anti-OVA IgG2c titer (OVA)
CC(C)CCCC(C)CCCC(C)CCCC(C)CCOC[C@@H](CO[C@@H]1O[C@H](CO)[C@@H](O[C@@H]2O[C@H](COS(=O)(=O)O)[C@H](O)[C@H](O)[C@H]2O)[C@H](O)[C@H]1O)OCCC(C)CCCC(C)CCCC(C)CCCC(C)C (stereo partly drawn) [SLA, 6′-sulfate-β-D-Galp-(1,4)-β-D-Glcp-(1,1)-archaeol]	6,050	100
polyinosinic-polycytidylic acid [Poly(I:C), reference compound]		5420

Source: US12661397B2, “Adjuvant comprising a glycoarchaeol and an immunostimulant” (priority 2021, dated 2026)
